{"source": "patent US20040067947A1", "about": "“Method of preventing or treating atherosclerosis or restenosis” (priority 2002, published 2004)", "origin": "cited, not measured here", "test_system": "CMV infection of rats", "settings": "rats infected with CMV; DHPG prophylaxis; Lemstrom et al., Circulation 1994, 90:1969-1978", "data": [{"smiles": "Nc1nc(O)c2ncn(COC(CO)CO)c2n1", "note": "[Ganciclovir]", "values": [{"measurement": "prevention of atherosclerosis resulting from CMV infection", "value": "prevent atherosclerosis"}]}]}
